Reference: ChEMBL document CHEMBL5712083, “Regulation of Epstein-Barr Virus Life Cycle and Cell Proliferation by Histone H3K27 Methyltransferase EZH2 in Akata Cells” (mSphere, 2018)
Activity calls are given as the source filed them. The calls are words filed in the database; no cut-off is given here.

Legend:
Type in all cases: cell-based
[1] = molecular target: Histone-lysine N-methyltransferase EZH2 (Homo sapiens) (UniProt Q15910); experiment: Inhibition of EZH2 in human EBV-positive Akata cells assessed as increase in lytic gene LMP1 at 1 uM after 3 days by qRT-PCR analysis relative control; settings: time 3.0 day
[2] = molecular target: Histone-lysine N-methyltransferase EZH2 (Homo sapiens) (UniProt Q15910); experiment: Inhibition of EZH2 in human EBV-positive Akata cells assessed as reduction in H3K27me3 levels at 1 uM after 3 days by CHIP assay; settings: time 3.0 day
[3] = molecular target: Histone-lysine N-methyltransferase EZH2 (Homo sapiens) (UniProt Q15910); experiment: Inhibition of EZH2 in human EBV-positive Akata cells assessed as reduction in H3K27me3 levels at 1 uM after 3 days by Western blot analysis; settings: time 3.0 day
[4] = molecular target: Histone-lysine N-methyltransferase EZH2 (Homo sapiens) (UniProt Q15910); experiment: Inhibition of EZH2 in human EBV-positive Akata cells assessed as effect on lytic gene LMP2 at 1 uM after 3 days by qRT-PCR analysis; settings: time 3.0 day
[5] = molecular target: Histone-lysine N-methyltransferase EZH2 (Homo sapiens) (UniProt Q15910); experiment: Inhibition of EZH2 in human EBV-positive Akata cells assessed as effect on lytic gene EBNA1 at 1 uM after 3 days by qRT-PCR analysis; settings: time 3.0 day
[6] = molecular target: Histone-lysine N-methyltransferase EZH2 (Homo sapiens) (UniProt Q15910); experiment: Inhibition of EZH2 in human EBV-positive Akata cells assessed as effect on lytic gene EBNA2 at 1 uM after 3 days by qRT-PCR analysis; settings: time 3.0 day
[7] = molecular target: Histone-lysine N-methyltransferase EZH2 (Homo sapiens) (UniProt Q15910); experiment: Inhibition of EZH2 in human EBV-positive Akata cells assessed as effect on lytic gene EBER1 at 1 uM after 3 days by qRT-PCR analysis; settings: time 3.0 day
[8] = molecular target: Histone-lysine N-methyltransferase EZH2 (Homo sapiens) (UniProt Q15910); experiment: Inhibition of EZH2 in human EBV-positive Akata cells assessed as effect on lytic gene BARTs at 1 uM after 3 days by qRT-PCR analysis; settings: time 3.0 day
[9] = molecular target: Histone-lysine N-methyltransferase EZH2 (Homo sapiens) (UniProt Q15910); experiment: Inhibition of EZH2 in human EBV-positive Akata cells assessed as effect on lytic gene BZLF1 at 1 uM after 3 days by qRT-PCR analysis; settings: time 3.0 day
[10] = molecular target: Histone-lysine N-methyltransferase EZH2 (Homo sapiens) (UniProt Q15910); experiment: Inhibition of EZH2 in human EBV-positive Akata cells assessed as effect on lytic gene gp350/200 at 1 uM after 3 days by qRT-PCR analysis; settings: time 3.0 day
[11] = molecular target: Histone-lysine N-methyltransferase EZH2 (Homo sapiens) (UniProt Q15910); experiment: Inhibition of EZH2 in human EBV-positive Akata cells assessed as increase in lytic gene LMP1 at 1 uM for 3 days followed by addition of ant-IgG for lytic induction for 2 days by qRT-PCR analysis relative to control; settings: time 5.0 day
[12] = molecular target: Histone-lysine N-methyltransferase EZH2 (Homo sapiens) (UniProt Q15910); experiment: Inhibition of EZH2 in human EBV-positive Akata cells assessed as effect on lytic gene LMP2 at 1 uM for 3 days followed by addition of ant-IgG for lytic induction for 2 days by qRT-PCR analysis; settings: time 5.0 day
[13] = molecular target: Histone-lysine N-methyltransferase EZH2 (Homo sapiens) (UniProt Q15910); experiment: Inhibition of EZH2 in human EBV-positive Akata cells assessed as effect on lytic gene EBNA1 at 1 uM for 3 days followed by addition of ant-IgG for lytic induction for 2 days by qRT-PCR analysis; settings: time 5.0 day
[14] = molecular target: Histone-lysine N-methyltransferase EZH2 (Homo sapiens) (UniProt Q15910); experiment: Inhibition of EZH2 in human EBV-positive Akata cells assessed as effect on lytic gene EBNA2 at 1 uM for 3 days followed by addition of ant-IgG for lytic induction for 2 days by qRT-PCR analysis; settings: time 5.0 day
[15] = molecular target: Histone-lysine N-methyltransferase EZH2 (Homo sapiens) (UniProt Q15910); experiment: Inhibition of EZH2 in human EBV-positive Akata cells assessed as effect on lytic gene EBER1 at 1 uM for 3 days followed by addition of ant-IgG for lytic induction for 2 days by qRT-PCR analysis; settings: time 5.0 day
[16] = molecular target: Histone-lysine N-methyltransferase EZH2 (Homo sapiens) (UniProt Q15910); experiment: Inhibition of EZH2 in human EBV-positive Akata cells assessed as effect on lytic gene BARTs at 1 uM for 3 days followed by addition of ant-IgG for lytic induction for 2 days by qRT-PCR analysis; settings: time 5.0 day
[17] = molecular target: Histone-lysine N-methyltransferase EZH2 (Homo sapiens) (UniProt Q15910); experiment: Inhibition of EZH2 in human EBV-positive Akata cells assessed as effect on lytic gene BZLF1 at 1 uM for 3 days followed by addition of ant-IgG for lytic induction for 2 days by qRT-PCR analysis; settings: time 5.0 day
[18] = molecular target: Histone-lysine N-methyltransferase EZH2 (Homo sapiens) (UniProt Q15910); experiment: Inhibition of EZH2 in human EBV-positive Akata cells assessed as effect on lytic gene gp350/200 at 1 uM for 3 days followed by addition of ant-IgG for lytic induction for 2 days by qRT-PCR analysis; settings: time 5.0 day
[19] = molecular target: Histone-lysine N-methyltransferase EZH2 (Homo sapiens) (UniProt Q15910); experiment: Inhibition of EZH2 in human EBV-positive Akata cells assessed as effect on cell viability at 1 uM
[20] = molecular target: Histone-lysine N-methyltransferase EZH2 (Homo sapiens) (UniProt Q15910); experiment: Inhibition of EZH2 (unknown origin) in Lymphoblastoid cells assessed as reduction in H3K27me3 levels at 1 uM after 3 days by Western blot analysis; settings: Lymphoblastoid cell, time 3.0 day
[21] = molecular target: Histone-lysine N-methyltransferase EZH2 (Homo sapiens) (UniProt Q15910); experiment: Inhibition of EZH2 (unknown origin) in Lymphoblastoid cells assessed as reduction in H3K27me3 levels at 1 uM after 3 days by CHIP assay; settings: Lymphoblastoid cell, time 3.0 day
[22] = molecular target: Histone-lysine N-methyltransferase EZH2 (Homo sapiens) (UniProt Q15910); experiment: Inhibition of EZH2 (unknown origin) in Lymphoblastoid cells assessed as effect on lytic gene LMP1 at 1 uM for 3 days followed by addition of TPA, A23187 and sodium butyrate for lytic induction for 2 days by qRT-PCR analysis relative to control; settings: Lymphoblastoid cell, time 5.0 day
[23] = molecular target: Histone-lysine N-methyltransferase EZH2 (Homo sapiens) (UniProt Q15910); experiment: Inhibition of EZH2 (unknown origin) in Lymphoblastoid cells assessed as effect on lytic gene LMP2 at 1 uM for 3 days followed by addition of TPA, A23187 and sodium butyrate for lytic induction for 2 days by qRT-PCR analysis; settings: Lymphoblastoid cell, time 5.0 day
[24] = molecular target: Histone-lysine N-methyltransferase EZH2 (Homo sapiens) (UniProt Q15910); experiment: Inhibition of EZH2 (unknown origin) in Lymphoblastoid cells assessed as effect on lytic gene EBNA1 at 1 uM for 3 days followed by addition of TPA, A23187 and sodium butyrate for lytic induction for 2 days by qRT-PCR analysis; settings: Lymphoblastoid cell, time 5.0 day
[25] = molecular target: Histone-lysine N-methyltransferase EZH2 (Homo sapiens) (UniProt Q15910); experiment: Inhibition of EZH2 (unknown origin) in Lymphoblastoid cells assessed as effect on lytic gene EBNA2 at 1 uM for 3 days followed by addition of TPA, A23187 and sodium butyrate for lytic induction for 2 days by qRT-PCR analysis; settings: Lymphoblastoid cell, time 5.0 day
[26] = molecular target: Histone-lysine N-methyltransferase EZH2 (Homo sapiens) (UniProt Q15910); experiment: Inhibition of EZH2 (unknown origin) in Lymphoblastoid cells assessed as effect on lytic gene EBER1 at 1 uM for 3 days followed by addition of TPA, A23187 and sodium butyrate for lytic induction for 2 days by qRT-PCR analysis; settings: Lymphoblastoid cell, time 5.0 day
[27] = molecular target: Histone-lysine N-methyltransferase EZH2 (Homo sapiens) (UniProt Q15910); experiment: Inhibition of EZH2 (unknown origin) in Lymphoblastoid cells assessed as effect on lytic gene BARTs at 1 uM for 3 days followed by addition of TPA, A23187 and sodium butyrate for lytic induction for 2 days by qRT-PCR analysis; settings: Lymphoblastoid cell, time 5.0 day
[28] = molecular target: Histone-lysine N-methyltransferase EZH2 (Homo sapiens) (UniProt Q15910); experiment: Inhibition of EZH2 (unknown origin) in Lymphoblastoid cells assessed as effect on lytic gene BZLF1 at 1 uM for 3 days followed by addition of TPA, A23187 and sodium butyrate for lytic induction for 2 days by qRT-PCR analysis; settings: Lymphoblastoid cell, time 5.0 day
[29] = molecular target: Histone-lysine N-methyltransferase EZH2 (Homo sapiens) (UniProt Q15910); experiment: Inhibition of EZH2 (unknown origin) in Lymphoblastoid cells assessed as effect on lytic gene gp350/200 at 1 uM for 3 days followed by addition of TPA, A23187 and sodium butyrate for lytic induction for 2 days by qRT-PCR analysis; settings: Lymphoblastoid cell, time 5.0 day

Histone-lysine N-methyltransferase EZH2 (Homo sapiens), sequence (Q15910 whole entry, looked up): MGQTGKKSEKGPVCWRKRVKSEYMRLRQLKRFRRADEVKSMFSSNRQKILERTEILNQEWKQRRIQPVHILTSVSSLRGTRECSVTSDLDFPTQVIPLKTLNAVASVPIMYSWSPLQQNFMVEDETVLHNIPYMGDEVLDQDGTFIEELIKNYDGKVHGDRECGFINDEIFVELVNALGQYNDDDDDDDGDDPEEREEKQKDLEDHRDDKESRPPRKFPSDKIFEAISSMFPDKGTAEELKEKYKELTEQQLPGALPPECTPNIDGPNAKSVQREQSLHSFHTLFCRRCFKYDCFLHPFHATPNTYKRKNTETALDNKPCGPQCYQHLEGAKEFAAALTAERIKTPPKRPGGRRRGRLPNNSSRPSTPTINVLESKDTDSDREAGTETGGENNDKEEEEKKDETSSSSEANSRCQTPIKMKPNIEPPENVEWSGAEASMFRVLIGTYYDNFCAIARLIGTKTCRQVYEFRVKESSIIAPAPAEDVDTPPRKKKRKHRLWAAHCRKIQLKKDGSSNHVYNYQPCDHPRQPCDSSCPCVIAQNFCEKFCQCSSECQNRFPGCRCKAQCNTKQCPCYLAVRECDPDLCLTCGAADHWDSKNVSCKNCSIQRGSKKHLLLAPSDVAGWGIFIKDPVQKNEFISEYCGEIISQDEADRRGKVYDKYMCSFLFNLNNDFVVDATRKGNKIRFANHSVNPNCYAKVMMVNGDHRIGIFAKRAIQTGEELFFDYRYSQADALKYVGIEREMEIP

CCCc1cc(C)[nH]c(=O)c1CNC(=O)c1cc(-c2ccnc(N3CCN(C)CC3)c2)cc2c1cnn2C(C)C
fold change (FC) [1]: 2.6
inhibition [2]: Active
inhibition [3]: Active
inhibition [4]: inactive
inhibition [5]: inactive
inhibition [6]: inactive
inhibition [7]: inactive
inhibition [8]: inactive
inhibition [9]: inactive
inhibition [10]: inactive
fold change (FC) [11]: 6.7
inhibition [12]: inactive
inhibition [13]: inactive
inhibition [14]: inactive
inhibition [15]: inactive
inhibition [16]: inactive
inhibition [17]: inactive
inhibition [18]: inactive
inhibition [19]: inactive
inhibition [20]: Active
inhibition [21]: Active
fold change (FC) [22]: 8.3
inhibition [23]: inactive
inhibition [24]: inactive
inhibition [25]: inactive
inhibition [26]: inactive
inhibition [27]: inactive
inhibition [28]: inactive
inhibition [29]: inactive
